ChEMBL document CHEMBL3991601, “The target landscape of clinical kinase drugs” (Science, 2017)
pKd: −log10 of the molar value. Active and inactive are the calls of the source. For most assays here, no stated cut-off is given here; in the data, actives have a measured Kd and inactives only a lower limit.

Assays:
[1] = molecular target: T1, Succinate--CoA ligase [ADP-forming] subunit beta, mitochondrial (Homo sapiens, UniProt Q9P2R7)
T1 sequence (Q9P2R7 whole entry): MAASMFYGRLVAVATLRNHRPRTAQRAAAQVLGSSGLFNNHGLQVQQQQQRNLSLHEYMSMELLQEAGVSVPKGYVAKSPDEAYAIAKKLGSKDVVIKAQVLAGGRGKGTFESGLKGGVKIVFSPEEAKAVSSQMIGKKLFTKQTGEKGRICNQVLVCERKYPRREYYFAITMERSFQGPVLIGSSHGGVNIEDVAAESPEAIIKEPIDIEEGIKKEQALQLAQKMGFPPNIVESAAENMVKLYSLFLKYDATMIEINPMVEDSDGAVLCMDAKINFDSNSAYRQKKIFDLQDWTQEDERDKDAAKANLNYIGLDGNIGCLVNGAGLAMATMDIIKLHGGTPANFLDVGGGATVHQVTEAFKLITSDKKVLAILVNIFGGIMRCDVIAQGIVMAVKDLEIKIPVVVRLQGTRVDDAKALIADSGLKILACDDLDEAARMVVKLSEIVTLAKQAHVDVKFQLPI

[2] = molecular target: Rho-associated protein kinase 1 (Homo sapiens, UniProt Q13464)
[3] = molecular target: Mitogen-activated protein kinase 7 (Homo sapiens, UniProt Q13164)
Chain of Mitogen-activated protein kinase 7 (Q13164 whole entry): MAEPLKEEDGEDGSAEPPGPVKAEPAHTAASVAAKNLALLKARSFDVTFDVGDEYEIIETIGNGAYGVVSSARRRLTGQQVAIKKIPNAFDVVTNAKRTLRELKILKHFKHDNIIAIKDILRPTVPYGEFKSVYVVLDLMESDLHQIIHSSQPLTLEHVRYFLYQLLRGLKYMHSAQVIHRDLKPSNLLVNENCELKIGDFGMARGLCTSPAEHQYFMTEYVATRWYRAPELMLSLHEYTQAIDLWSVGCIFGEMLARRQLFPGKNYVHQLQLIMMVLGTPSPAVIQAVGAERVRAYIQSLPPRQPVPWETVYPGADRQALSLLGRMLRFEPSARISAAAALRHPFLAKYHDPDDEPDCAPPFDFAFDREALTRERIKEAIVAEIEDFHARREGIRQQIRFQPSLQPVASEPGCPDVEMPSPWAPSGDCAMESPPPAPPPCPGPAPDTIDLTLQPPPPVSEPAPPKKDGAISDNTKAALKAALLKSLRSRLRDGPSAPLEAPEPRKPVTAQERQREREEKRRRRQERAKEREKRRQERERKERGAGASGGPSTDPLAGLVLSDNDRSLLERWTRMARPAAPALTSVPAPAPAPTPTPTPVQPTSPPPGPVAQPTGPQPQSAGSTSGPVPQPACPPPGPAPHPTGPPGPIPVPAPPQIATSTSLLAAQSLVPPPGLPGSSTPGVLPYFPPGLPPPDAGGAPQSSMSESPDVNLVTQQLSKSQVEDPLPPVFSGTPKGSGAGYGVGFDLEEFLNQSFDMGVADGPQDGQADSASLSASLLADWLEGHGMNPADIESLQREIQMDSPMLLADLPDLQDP

[4] = molecular target: Protein-tyrosine kinase 6 (Homo sapiens, UniProt Q13882)
[5] = molecular target: PAS domain-containing serine/threonine-protein kinase (Homo sapiens, UniProt Q96RG2)
Chain of PAS domain-containing serine/threonine-protein kinase (Q96RG2 whole entry, the tested form may be a part): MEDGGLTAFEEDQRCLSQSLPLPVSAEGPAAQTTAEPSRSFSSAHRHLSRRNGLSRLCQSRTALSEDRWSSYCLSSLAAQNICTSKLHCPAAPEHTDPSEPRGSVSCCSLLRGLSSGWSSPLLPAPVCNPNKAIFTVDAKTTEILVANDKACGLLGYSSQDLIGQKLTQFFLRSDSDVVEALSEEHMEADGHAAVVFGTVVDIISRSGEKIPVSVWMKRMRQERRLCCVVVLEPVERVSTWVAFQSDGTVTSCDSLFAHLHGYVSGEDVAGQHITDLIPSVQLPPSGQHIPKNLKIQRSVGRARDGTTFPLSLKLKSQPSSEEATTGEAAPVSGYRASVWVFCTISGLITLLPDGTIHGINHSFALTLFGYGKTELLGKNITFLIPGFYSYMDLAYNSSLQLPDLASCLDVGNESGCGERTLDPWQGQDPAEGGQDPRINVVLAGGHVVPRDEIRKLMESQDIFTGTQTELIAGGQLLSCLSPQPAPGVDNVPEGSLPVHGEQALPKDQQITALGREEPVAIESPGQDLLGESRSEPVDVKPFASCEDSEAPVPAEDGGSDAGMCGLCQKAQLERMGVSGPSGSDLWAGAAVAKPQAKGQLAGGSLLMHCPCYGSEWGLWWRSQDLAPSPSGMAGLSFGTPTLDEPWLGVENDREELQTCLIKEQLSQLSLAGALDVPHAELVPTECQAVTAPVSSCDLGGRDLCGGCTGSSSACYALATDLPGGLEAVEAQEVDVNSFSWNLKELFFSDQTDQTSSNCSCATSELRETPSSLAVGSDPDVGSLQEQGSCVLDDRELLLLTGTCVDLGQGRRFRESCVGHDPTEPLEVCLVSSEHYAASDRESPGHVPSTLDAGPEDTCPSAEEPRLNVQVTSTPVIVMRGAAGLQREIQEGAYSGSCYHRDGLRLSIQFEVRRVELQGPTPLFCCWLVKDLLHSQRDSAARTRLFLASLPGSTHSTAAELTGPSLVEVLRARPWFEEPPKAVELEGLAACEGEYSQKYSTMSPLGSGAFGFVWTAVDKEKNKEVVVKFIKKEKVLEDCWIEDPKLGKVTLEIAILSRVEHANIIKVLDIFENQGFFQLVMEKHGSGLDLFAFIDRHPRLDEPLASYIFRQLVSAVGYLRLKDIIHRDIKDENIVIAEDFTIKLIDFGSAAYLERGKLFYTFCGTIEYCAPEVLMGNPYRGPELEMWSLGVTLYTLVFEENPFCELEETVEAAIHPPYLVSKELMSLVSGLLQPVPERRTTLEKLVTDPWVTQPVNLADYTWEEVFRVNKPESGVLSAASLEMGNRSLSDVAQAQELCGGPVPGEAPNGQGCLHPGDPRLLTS

[6] = molecular target: Tyrosine-protein kinase HCK (Homo sapiens, UniProt P08631)
Chain of Tyrosine-protein kinase HCK (P08631 whole entry): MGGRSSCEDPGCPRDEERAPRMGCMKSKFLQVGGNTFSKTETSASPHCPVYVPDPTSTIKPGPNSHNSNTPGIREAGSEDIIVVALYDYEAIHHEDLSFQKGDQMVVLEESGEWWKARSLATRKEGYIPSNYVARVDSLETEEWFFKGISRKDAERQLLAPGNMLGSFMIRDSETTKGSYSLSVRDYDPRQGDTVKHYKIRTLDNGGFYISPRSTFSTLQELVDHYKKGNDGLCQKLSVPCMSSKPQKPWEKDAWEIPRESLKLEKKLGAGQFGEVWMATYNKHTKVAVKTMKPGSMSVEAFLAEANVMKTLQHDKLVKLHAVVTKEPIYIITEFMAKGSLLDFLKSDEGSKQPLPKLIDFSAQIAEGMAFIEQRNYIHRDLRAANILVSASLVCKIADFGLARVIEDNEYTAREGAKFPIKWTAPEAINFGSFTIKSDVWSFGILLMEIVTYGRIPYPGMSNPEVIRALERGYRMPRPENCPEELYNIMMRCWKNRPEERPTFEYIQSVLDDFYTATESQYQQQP

[7] = molecular target: T2, Mitogen-activated protein kinase kinase kinase kinase 3 (Homo sapiens, UniProt Q8IVH8)
T2 sequence (Q8IVH8 whole entry): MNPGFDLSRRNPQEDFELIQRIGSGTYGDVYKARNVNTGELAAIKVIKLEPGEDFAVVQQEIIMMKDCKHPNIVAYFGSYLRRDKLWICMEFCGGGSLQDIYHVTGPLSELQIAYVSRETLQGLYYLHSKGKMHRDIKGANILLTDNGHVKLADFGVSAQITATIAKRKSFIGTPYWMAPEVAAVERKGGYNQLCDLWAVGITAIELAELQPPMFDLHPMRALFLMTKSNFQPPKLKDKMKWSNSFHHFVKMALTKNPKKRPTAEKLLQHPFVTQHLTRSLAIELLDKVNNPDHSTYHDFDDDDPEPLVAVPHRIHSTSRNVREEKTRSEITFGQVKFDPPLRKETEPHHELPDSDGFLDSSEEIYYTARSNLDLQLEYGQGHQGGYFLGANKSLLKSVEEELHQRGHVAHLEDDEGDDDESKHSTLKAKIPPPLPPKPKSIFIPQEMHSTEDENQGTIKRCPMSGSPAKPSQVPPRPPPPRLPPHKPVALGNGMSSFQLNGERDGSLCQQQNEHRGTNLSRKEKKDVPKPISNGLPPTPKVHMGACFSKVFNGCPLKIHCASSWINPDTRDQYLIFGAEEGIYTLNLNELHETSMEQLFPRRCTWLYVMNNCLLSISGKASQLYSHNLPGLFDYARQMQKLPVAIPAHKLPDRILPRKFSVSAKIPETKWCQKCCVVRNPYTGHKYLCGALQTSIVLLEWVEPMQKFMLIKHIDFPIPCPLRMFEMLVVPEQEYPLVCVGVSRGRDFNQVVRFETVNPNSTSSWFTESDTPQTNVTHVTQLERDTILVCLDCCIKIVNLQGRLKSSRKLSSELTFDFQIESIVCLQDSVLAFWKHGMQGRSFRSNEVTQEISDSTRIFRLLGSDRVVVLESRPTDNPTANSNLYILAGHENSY

Aurora kinase B = Aurora kinase B (Homo sapiens, UniProt Q96GD4)
Chain of Aurora kinase B (Q96GD4 whole entry): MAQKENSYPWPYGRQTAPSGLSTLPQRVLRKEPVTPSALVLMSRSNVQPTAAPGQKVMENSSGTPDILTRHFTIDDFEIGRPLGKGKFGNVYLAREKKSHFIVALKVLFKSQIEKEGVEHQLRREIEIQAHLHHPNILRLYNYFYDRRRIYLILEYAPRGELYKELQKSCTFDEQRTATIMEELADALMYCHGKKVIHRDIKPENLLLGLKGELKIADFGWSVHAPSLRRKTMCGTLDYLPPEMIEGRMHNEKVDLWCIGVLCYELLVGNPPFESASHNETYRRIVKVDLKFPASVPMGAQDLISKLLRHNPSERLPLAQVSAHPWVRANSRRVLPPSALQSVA

Activin receptor type-2B = Activin receptor type-2B (Homo sapiens, UniProt Q13705)
Chain of Activin receptor type-2B (Q13705 whole entry): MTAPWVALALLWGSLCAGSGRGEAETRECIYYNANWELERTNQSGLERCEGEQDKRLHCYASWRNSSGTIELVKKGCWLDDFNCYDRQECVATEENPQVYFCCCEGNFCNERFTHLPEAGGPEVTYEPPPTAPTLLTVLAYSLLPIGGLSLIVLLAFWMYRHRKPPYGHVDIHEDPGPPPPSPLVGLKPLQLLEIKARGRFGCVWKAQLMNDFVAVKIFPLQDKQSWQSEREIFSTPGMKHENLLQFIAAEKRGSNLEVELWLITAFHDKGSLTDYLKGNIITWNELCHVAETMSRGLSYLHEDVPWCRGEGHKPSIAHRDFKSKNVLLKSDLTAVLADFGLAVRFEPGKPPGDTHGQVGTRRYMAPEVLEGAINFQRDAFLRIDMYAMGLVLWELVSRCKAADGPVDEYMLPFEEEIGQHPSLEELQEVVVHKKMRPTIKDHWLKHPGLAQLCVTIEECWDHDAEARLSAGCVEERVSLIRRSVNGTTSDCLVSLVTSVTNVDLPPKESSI

[8] = molecular target: 5'-AMP-activated protein kinase catalytic subunit alpha-1 (Homo sapiens, UniProt Q13131)
Chain of 5'-AMP-activated protein kinase catalytic subunit alpha-1 (Q13131 whole entry, the tested form may be a part): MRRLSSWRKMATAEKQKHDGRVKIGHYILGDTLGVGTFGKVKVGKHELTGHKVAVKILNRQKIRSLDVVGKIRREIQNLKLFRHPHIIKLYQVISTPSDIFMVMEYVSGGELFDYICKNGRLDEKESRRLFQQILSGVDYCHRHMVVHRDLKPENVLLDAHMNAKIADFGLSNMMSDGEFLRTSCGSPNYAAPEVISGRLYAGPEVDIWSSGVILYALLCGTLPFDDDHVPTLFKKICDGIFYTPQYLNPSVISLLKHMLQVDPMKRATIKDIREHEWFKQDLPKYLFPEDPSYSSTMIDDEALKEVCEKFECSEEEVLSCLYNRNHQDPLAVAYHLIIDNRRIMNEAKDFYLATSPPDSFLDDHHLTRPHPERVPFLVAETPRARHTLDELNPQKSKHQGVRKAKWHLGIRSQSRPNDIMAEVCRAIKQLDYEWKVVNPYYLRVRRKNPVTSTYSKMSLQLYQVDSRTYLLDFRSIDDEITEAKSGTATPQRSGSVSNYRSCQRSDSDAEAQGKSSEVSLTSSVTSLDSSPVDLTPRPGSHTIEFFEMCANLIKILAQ

LIM domain kinase 1 = LIM domain kinase 1 (Homo sapiens, UniProt P53667)
[9] = molecular target: Mitogen-activated protein kinase 11 (Homo sapiens, UniProt Q15759)
Chain of Mitogen-activated protein kinase 11 (Q15759 whole entry): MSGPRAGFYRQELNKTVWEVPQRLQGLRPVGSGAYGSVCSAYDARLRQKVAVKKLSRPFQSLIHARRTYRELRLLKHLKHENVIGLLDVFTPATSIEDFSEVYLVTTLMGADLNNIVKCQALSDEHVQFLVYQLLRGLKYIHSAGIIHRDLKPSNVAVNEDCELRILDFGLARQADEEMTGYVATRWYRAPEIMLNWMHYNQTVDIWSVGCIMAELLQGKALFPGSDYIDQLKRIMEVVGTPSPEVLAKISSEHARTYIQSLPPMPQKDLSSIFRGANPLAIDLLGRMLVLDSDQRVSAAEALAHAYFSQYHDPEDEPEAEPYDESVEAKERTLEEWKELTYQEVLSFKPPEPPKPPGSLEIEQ

[10] = molecular target: T3, Phosphatidylinositol 5-phosphate 4-kinase type-2 alpha (Homo sapiens, UniProt P48426)
T3 sequence (P48426 whole entry): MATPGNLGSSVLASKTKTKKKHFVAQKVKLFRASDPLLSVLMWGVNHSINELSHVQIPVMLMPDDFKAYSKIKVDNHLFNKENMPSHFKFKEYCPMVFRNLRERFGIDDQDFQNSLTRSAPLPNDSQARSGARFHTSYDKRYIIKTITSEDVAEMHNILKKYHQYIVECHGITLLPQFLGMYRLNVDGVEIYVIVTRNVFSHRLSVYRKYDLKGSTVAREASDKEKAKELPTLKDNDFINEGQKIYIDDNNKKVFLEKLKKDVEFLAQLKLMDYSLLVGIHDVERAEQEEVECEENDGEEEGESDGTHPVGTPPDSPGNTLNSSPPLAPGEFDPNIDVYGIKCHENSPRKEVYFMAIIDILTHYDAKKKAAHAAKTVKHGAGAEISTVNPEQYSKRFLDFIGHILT

LIM domain kinase 2 = LIM domain kinase 2 (Homo sapiens, UniProt P53671)
GTP-binding protein 4 = GTP-binding protein 4 (Homo sapiens, UniProt Q9BZE4)
[11] = molecular target: T4, Adenine phosphoribosyltransferase (Homo sapiens, UniProt P07741)
T4 sequence (P07741 whole entry): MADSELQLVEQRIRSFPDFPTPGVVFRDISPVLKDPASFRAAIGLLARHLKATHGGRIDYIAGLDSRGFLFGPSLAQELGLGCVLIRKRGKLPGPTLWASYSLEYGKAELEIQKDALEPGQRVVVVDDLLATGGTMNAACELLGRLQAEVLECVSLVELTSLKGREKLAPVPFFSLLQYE

[12] = molecular target: Mitogen-activated protein kinase 8 (Homo sapiens, UniProt P45983)
Chain of Mitogen-activated protein kinase 8 (P45983 whole entry): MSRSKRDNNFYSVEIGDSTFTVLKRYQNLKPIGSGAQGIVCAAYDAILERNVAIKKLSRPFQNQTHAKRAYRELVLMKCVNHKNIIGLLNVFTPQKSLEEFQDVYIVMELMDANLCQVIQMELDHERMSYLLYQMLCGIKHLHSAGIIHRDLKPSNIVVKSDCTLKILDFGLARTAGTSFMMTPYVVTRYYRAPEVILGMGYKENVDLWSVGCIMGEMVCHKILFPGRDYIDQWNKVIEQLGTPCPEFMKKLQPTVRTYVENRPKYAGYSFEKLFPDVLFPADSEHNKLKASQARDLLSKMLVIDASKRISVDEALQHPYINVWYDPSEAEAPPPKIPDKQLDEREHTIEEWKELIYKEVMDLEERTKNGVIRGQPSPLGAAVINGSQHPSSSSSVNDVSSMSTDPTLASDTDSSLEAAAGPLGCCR

Row | Kd [1] | Kd [2] | Kd [3] | Kd [4] | Kd [5] | Kd [6] | Kd [7] | Kd (Aurora kinase B) | Kd (Activin receptor type-2B) | Kd [8] | Kd (LIM domain kinase 1) | Kd [9] | Kd [10] | Kd (LIM domain kinase 2) | Kd (GTP-binding protein 4) | Kd [11] | Kd [12] | pKd [2] | SMILES
1 | > 30 µM (inactive) | > 30 µM (inactive) | > 30 µM (inactive) | > 30 µM (inactive) | > 30 µM (inactive) | > 30 µM (inactive) | > 30 µM (inactive) | > 30 µM (inactive) | > 30 µM (inactive) | > 30 µM (inactive) | > 30 µM (inactive) | > 30 µM (inactive) | > 30 µM (inactive) | > 30 µM (inactive) | > 30 µM (inactive) | > 30 µM (inactive) | > 30 µM (inactive) |  | CO[C@H]1C[C@@H]2CC[C@@H](C)[C@@](O)(O2)C(=O)C(=O)N2CCCC[C@H]2C(=O)O[C@H]([C@H](C)C[C@@H]2CC[C@@H](OC(=O)C(C)(CO)CO)[C@H](OC)C2)CC(=O)[C@H](C)/C=C(\C)[C@@H](O)[C@@H](OC)C(=O)[C@H](C)C[C@H](C)/C=C/C=C/C=C/1C [TEMSIROLIMUS]
2 | > 30 µM (inactive) | > 30 µM (inactive) | > 30 µM (inactive) | 0.172 µM (active) | > 30 µM (inactive) | 1.16 µM (active) | 1.82 µM (active) | > 30 µM (inactive) | > 30 µM (inactive) | > 30 µM (inactive) | > 30 µM (inactive) | > 30 µM (inactive) | > 30 µM (inactive) | > 30 µM (inactive) | > 30 µM (inactive) | > 30 µM (inactive) | > 30 µM (inactive) |  | COc1cc2c(Nc3ccc(Cl)c(Cl)c3F)ncnc2cc1OC[C@@H]1C[C@@H]2CN(C)C[C@@H]2C1 [TESEVATINIB]
3 | > 30 µM (inactive) | > 30 µM (inactive) | > 30 µM (inactive) | > 30 µM (inactive) | > 30 µM (inactive) | > 30 µM (inactive) | > 30 µM (inactive) | > 30 µM (inactive) | > 30 µM (inactive) | > 30 µM (inactive) | 1.02 µM (active) | 0.684 µM (active) | > 30 µM (inactive) | > 30 µM (inactive) | > 30 µM (inactive) | > 30 µM (inactive) | > 30 µM (inactive) |  | C[C@@H](NC(=O)c1ncnc(N)c1Cl)c1ncc(C(=O)Nc2cc(C(F)(F)F)c(Cl)cn2)s1 [TOVORAFENIB]
4 | > 30 µM (inactive) |  | > 30 µM (inactive) | > 30 µM (inactive) | > 30 µM (inactive) | > 30 µM (inactive) | 0.85 µM (active) | > 30 µM (inactive) | > 30 µM (inactive) | > 30 µM (inactive) | > 30 µM (inactive) | > 30 µM (inactive) | > 30 µM (inactive) | > 30 µM (inactive) | > 30 µM (inactive) | > 30 µM (inactive) | 1.46 µM (active) | 4.00 | CN1C/C=C/CCOc2cccc(c2)-c2ccnc(n2)Nc2cccc(c2)C1 [ZOTIRACICLIB]
